Measured values: patent publication US20070032458A1, “Compound having activity for inhibiting dioxin toxicity, pharmaceutical composition comprising the compound and method for treating disease resulting from dioxin toxicity using the compound” (priority 2005, published 2007)
Read-outs that look alike come from different tables or passages of the source.

Assays:
[1] = test system: Cytochrome P450 enzyme activity (ethoxyresorufin-O-deethylase activity); experiment: Dioxin-induced EROD (cytochrome P450 enzyme) activity inhibition in Hep G2 cells; type: cell-based; conditions: Homo sapiens, read-out: Dioxin-induced EROD activity inhibition IC50
Method: (§1) Hep G2 cell that is a human hepatocarcinoma cell line was cultured in an incubator with a culture medium of Dulbecco's Modified Eagle Medium (DMEM) containing 10% of Fetal Bovine Serum (FBS) at 37° C. under an atmosphere of 5% of CO2.
1×104 of the cultured human hepatocarcinoma cells were placed into wells of a […]. After 24 hours, the cells were treated with a solution in which compounds represented by formulae 2 through 8 (obtained from Chembridge Corporation, San Diego, Calif.) were dissolved in dimethyl sulfoxide (DMSO) in a concentration of 0.1%. After one hour, the cells were treated with 3 nM of 2,3,7,8-tetrachlorodibenzo-p-dioxin (obtained from Cambridge Isotope Laboratory, Andover, Mass., U.S.A.). Cytochrome P450 enzyme activity was measured after 24 hours and the measured activity was evaluated by measuring ethoxyresorufin-O-deethylase activity (EROD, Ciolino et al, 1998).

cytochrome P450 1A1 = experiment: Western blot of dioxin-induced cytochrome P450 1A1 expression in hepatocarcinoma cells; type: cell-based, human
Method: as §1
3×10^5 of the cultured human hepatocarcinoma cells were placed into tissue culture plates and cultured for 24 hours. After 24 hours, the cells were treated with a solution in which Compound 2 (obtained from Chembridge Corporation, San Diego, Calif.) was dissolved in dimethyl sulfoxide (DMSO) in a concentration of 0.1%. After one hour, the cells were treated with 3 nM of 2,3,7,8-tetrachlorodibenzo-p-dioxin (obtained from Cambridge Isotope Laboratory, Andover, Mass., U.S.A.). After 24 hours, the culture medium was removed by suction and the cells were washed with phosphate buffer solution. Then the cells were lysed and the protein was quantified.
In FIG. 1, flavone that has been widely reported to inhibit dioxin toxicity even though it increases dioxin toxicity at high concentrations was used as a positive control group. FIG. 1 illustrates Western blot analysis of cells treated with Compound 2 and flavone.

dioxin receptor = biological target: T1, dioxin receptor (Homo sapiens, UniProt P35869); experiment: Inhibition of 3[H]-dioxin binding to its receptor in hepatocarcinoma cell cytoplasm (hydroxylapatite)
T1 construct: endogenous in cells; host or cells: hepatocarcinoma cells (cytoplasm fraction)
T1 sequence (P35869 11-848): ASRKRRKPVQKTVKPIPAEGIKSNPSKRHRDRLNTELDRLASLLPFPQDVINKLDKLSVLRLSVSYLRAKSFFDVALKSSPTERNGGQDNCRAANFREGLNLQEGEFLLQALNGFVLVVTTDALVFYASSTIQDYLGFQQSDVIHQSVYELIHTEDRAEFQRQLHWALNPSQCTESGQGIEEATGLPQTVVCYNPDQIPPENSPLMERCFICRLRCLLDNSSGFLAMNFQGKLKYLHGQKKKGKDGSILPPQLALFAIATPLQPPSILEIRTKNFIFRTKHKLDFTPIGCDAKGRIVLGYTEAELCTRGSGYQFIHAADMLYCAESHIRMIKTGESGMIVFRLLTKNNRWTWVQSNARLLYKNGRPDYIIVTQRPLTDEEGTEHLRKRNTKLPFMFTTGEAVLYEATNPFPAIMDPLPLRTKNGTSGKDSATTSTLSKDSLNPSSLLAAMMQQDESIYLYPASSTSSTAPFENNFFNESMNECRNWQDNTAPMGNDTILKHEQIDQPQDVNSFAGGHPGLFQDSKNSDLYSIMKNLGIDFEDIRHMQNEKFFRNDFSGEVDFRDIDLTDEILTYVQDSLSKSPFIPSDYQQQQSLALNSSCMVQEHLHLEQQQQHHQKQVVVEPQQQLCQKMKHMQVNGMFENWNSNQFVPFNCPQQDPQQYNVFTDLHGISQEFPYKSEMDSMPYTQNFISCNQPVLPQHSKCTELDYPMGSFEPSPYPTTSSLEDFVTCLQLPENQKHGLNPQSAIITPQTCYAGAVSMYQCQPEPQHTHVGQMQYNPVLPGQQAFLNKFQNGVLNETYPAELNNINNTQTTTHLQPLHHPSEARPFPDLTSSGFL
Method: Compound 2 and 3[H]-dioxin were added to cytoplasm of hepatocarcinoma cells and analysis on binding of ligand-receptor was performed using hydroxylapatite. […] The results are illustrated in FIG. 2.
FIG. 2 illustrates the ability in percentage of Compound 2 to inhibit the binding of 3[H]-dioxin to its receptor.

SMILES: Cc1cc(N=Nc2ccccc2C)ccc1N [Compound 7]
- IC50 ([1]; HepG2, Hep G2 cells, 3 nM 2,3,7,8-tetrachlorodibenzo-p-dioxin, measured after 24 hours): 215 ± 42 nM

SMILES: Cc1ccccc1N=Nc1ccc(NC(=O)c2ccnn2C)c(C)c1 [Compound 2]
- IC50 ([1]; HepG2, 24 h): 30 ± 2 nM
- expression of cytochrome P450 1A1 that is increased by dioxin (cytochrome P450 1A1; human hepatocarcinoma cells, 3 nM dioxin, 24 hours, Western blot): inhibited expression of cytochrome P450 1A1
- effect in decreasing the amount of expressed cytochrome P450 enzyme (cytochrome P450 1A1; various concentrations, FIG. 1): excellent effect
- binding ability of 3[H]-dioxin to its receptor with increasing concentration (dioxin receptor; Compound 2 at 0.1, 1 and 10 μM, FIG. 2): decreased as the concentration of Compound 2 increased
- binding of 3[H]-dioxin to its receptor (dioxin receptor; cytoplasm of hepatocarcinoma cells, hydroxylapatite): inhibited the binding

SMILES: Cc1ccccc1N=Nc1ccc(NC(=O)C(C)C)c(C)c1 [Compound 5]
- IC50 ([1]; HepG2, 24 h): 110 ± 7 nM

SMILES: CC(=O)N(C(C)=O)c1ccc(N=Nc2ccccc2C)cc1C [Compound 3]
- IC50 ([1]; HepG2, 24 h): 75 ± 4 nM

SMILES: Cc1ccccc1N=Nc1ccc(NC(=O)c2ccc(F)cc2)c(C)c1 [Compound 4]
- IC50 ([1]; HepG2, 24 h): 105 ± 11 nM

SMILES: Cc1ccccc1N=Nc1ccc(NC(=O)c2cccs2)c(C)c1 [Compound 6]
- IC50 ([1]; HepG2, 24 h): 153 ± 10 nM

SMILES: CCCCNC(=O)Nc1ccc(N=Nc2ccccc2C)cc1C [Compound 8]
- IC50 ([1]; HepG2, 24 h): 450 ± 75 nM
